Experimental findings from article PMC3602279 (Bioorganic & medicinal chemistry letters, 2013) are described below.

“Also recorded” adds a separate entry of the source.

One experiment deals with human κ opioid receptor (Homo sapiens, UniProt P41145). As to the kind of experiment: [35S]GTPγS binding, stimulation and inhibition of agonist-stimulated binding. As to conditions: for Functional description: Kappa Opioid Receptor; for Emax: read-out: Emax (% maximal stimulation). It is filed as biochemical. Background: GTPγS resists hydrolysis and so accumulates on activated G proteins.
human κ opioid receptor, sequence (P41145 whole entry): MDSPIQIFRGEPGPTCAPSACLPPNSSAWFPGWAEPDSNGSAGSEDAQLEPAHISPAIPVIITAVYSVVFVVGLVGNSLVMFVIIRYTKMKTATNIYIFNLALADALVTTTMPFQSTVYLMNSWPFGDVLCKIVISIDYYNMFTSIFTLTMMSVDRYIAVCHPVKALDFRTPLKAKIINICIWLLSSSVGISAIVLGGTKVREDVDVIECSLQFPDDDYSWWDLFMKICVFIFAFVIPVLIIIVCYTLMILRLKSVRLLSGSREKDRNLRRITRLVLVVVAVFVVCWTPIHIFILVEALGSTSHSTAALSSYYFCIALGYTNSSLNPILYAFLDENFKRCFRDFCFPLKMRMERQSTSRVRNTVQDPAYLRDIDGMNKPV

The next experiment concerns the target human μ opioid receptor (Homo sapiens, UniProt P35372). Described as above. It counts as biochemical. The conditions noted are these: for Functional description / Imax (% maximal inhibition): Mu Opioid Receptor; for Imax (% maximal inhibition): inhibition of binding stimulated by 200 nM DAMGO; for Emax: read-out: Emax (% maximal stimulation).

human μ opioid receptor, sequence (P35372 whole entry): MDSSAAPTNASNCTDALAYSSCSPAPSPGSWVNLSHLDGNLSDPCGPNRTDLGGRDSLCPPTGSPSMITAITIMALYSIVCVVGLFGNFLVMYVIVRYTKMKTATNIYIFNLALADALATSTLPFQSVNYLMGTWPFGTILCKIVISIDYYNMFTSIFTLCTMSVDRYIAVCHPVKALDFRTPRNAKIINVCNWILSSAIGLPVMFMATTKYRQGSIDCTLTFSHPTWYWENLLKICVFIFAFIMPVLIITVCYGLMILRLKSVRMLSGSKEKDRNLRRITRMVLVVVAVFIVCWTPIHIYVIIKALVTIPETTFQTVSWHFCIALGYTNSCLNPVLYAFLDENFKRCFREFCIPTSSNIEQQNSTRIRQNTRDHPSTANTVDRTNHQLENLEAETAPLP

As a reminder, the Emax is the greatest response seen or fitted, relative to the assay's reference. Turning to `CC1C2Cc3ccc(C(=O)NCCc4ccc(-c5ccccc5)cc4)cc3C1(C)CCN2CC1CC1` (racemic) [Compound 1, N-(2-[1,1′-biphenyl]-4-ylethyl)-3-(cyclopropylmethyl)-1,2,3,4,5,6-hexahydro-6,11-dimethyl-2,6-methano-3-benzazocine-8-carboxamide, reference compound], on human κ opioid receptor, the Functional description entry is “agonist” and the Emax came to 76 ± 6.7%.

For the compound `C[C@H]1C2Cc3ccc(C(=O)NCCc4ccc(-c5ccccc5)nc4)cc3[C@@]1(C)CCN2CC1CC1` [Compound 7], on human κ opioid receptor, the Functional description entry is “agonist” and the Emax is 52 ± 4.8%. Also, at human μ opioid receptor, the Functional description entry is recorded as “partial agonist”, the “Imax (% maximal inhibition)” value came to 87 ± 1.2 % maximal inhibition and the Emax was 30 ± 2.3%.

As for `C[C@H]1C2Cc3ccc(C(N)=O)cc3[C@@]1(C)CCN2CC1CC1` [Compound 2, 8-carboxamidocyclazocine, reference compound], at human κ opioid receptor, the Functional description result is reported as “agonist” and the Emax is 87 ± 6.5%. For the same compound, on human μ opioid receptor, the Functional description result was “functional partial agonists; also recorded: partial agonist”, the “Imax (% maximal inhibition)” value is reported as 76 ± 1.1 % maximal inhibition and the Emax is 24 ± 1.9%.

On to `C[C@H]1C2Cc3ccc(C(=O)NCCc4ccc(-c5cccnc5)cc4)cc3[C@@]1(C)CCN2CC1CC1` [Compound 5], for which, at human κ opioid receptor, the Functional description entry is recorded as “agonist” and the Emax is 52 ± 0.55%. Also, on human μ opioid receptor, the Functional description entry was “partial agonist”, the “Imax (% maximal inhibition)” value is given as 83 ± 2.9 % maximal inhibition and the Emax stood at 28 ± 2.2%.

On to `C[C@H]1C2Cc3ccc(C(=O)NCCc4ccc(-c5ccccc5)cn4)cc3[C@@]1(C)CCN2CC1CC1` [Compound 8], for which, at human κ opioid receptor, the Functional description result is listed as “agonist” and the Emax was found to be 64 ± 2.4%. Also, at human μ opioid receptor, the Functional description result is “partial agonist”, the “Imax (% maximal inhibition)” value worked out at 53 ± 5.4 % maximal inhibition and the Emax was found to be 25 ± 1.1%.

In the case of `C[C@H]1C2Cc3ccc(C(=O)NCCc4ccc(-c5ccncc5)cc4)cc3[C@@]1(C)CCN2CC1CC1` [Compound 4], on human κ opioid receptor, the Functional description result is on record as “agonist” and the Emax was 64 ± 5.1%. Also, at human μ opioid receptor, the Functional description result is listed as “partial agonist”, the “Imax (% maximal inhibition)” value amounted to 79 ± 3.3 % maximal inhibition and the Emax was 33 ± 0.68%.

With `C[C@H]1C2Cc3ccc(C(=O)NCCc4ccc(-c5ccccn5)cc4)cc3[C@@]1(C)CCN2CC1CC1` [Compound 6], at human κ opioid receptor, the Functional description entry was “agonist” and the Emax worked out at 50 ± 2.6%. For the same compound, on human μ opioid receptor, the Functional description entry was “partial agonist”, the “Imax (% maximal inhibition)” value is reported as 87 ± 3.1 % maximal inhibition and the Emax stood at 31 ± 1.8%.
